Experimental findings from patent publication US11708376B2 (VIRGINIA TECH INTELLECTUAL PROPERTIES, INC., priority 2018, dated 2023) are described below.

One may read the EC50 as the concentration giving half of the maximal effect.

The test system of the first test is whole cells (NMuLi, C2Cl2, and L6 cells, isolated cardiomyocytes, human primary fibroblasts). Nature of the test: Oxygen consumption rate (OCR) in whole cells, Seahorse XF-24 Flux Analyzer. The test is classed as cell-based. The following applies: cell type for Table 1 not stated, read-out: OCR Activity (increase in OCR), binned EC50. The protocol: Biological activities of the compounds synthesized is determined by determining increase in oxygen consumption rate (OCR).
Oxygen consumption rate (OCR) in whole cells is measured in general accordance with the method of Kenwood B M et al. (Mol. Met. (2014) 3: 114-123).
OCR is measured using a Seahorse XF-24 Flux Analyzer (Seahorse Biosciences, North Billerica, Mass.). NMuLi, C2Cl2, and L6 cells are seeded in a Seahorse 24-well tissue culture plate at a density of 3.5×10^4 cells/well, isolated cardiomyocytes at a density of 4×10^4 cells/well, and human primary fibroblasts at a density of 1.1×10^4 cells/well. The cells are then allowed to adhere for 24 h. Prior to the assay, the media is changed to unbuffered DMEM containing pyruvate and glutamine (Gibco #12800-017, pH=7.4 at 37° C.) and the cells are equilibrated for 30 mins at 37° C. Compounds are injected during the assay and OCR is measured using 2 min measurement periods.
2-3 wells are used per condition and averaged over three plates (n=6-9). Statistical significance is determined by two-way ANOVA with Bonfenoni's posttest.
Activities are reported as binned EC50 values: A=5 μM or less; B=>5 to 20 μM; C=over 20 μM; NA=no effect.
Turning to `COc1nc2[nH]c(C(F)(F)F)nc2nc1Nc1ccc(OC(F)(F)F)cc1F` [Compound 2-21, 6-methoxy-N-(2-fluoro-4-(trifluoromethoxy)phenyl)-2-(trifluoromethyl)-1H-imidazo[4,5-b]pyrazin-5-amine], the EC50 is at most 5 µM. As for `CCCOc1nc2[nH]c(C(F)(F)F)nc2nc1Nc1ccc(OC(F)(F)F)cc1F` [Compound 2-39, 6-propoxy-N-(2-fluoro-4-(trifluoromethoxy)phenyl)-2-(trifluoromethyl)-1H-imidazo[4,5-b]pyrazin-5-amine], the EC50 is 5 to 20 µM.

With `COc1nc2[nH]c(C(F)(F)F)nc2nc1Oc1ccc(C(F)(F)F)cc1` [Compound 2-40, 6-methoxy-2-(trifluoromethyl)-5-(4-(trifluoromethyl)phenoxy)-1H-imidazo[4,5-b]pyrazine], the concentration for a half-maximal effect (EC50) is at most 5 µM. Same read-out and setting: next, `COc1nc2[nH]c(C(F)(F)F)nc2nc1Nc1ccc(OC(F)(F)F)cc1I` [Compound 2-41, N-(2-iodo-4-(trifluoromethoxy)phenyl)-6-methoxy-2-(trifluoromethyl)-1H-imidazo[4,5-b]pyrazin-5-amine]: 5 to 20 µM; `COc1nc2[nH]c(C(F)(F)F)nc2nc1Nc1ccc(OC(F)(F)F)cc1Cl` [Compound 2-42, N-(2-chloro-4-(trifluoromethoxy)phenyl)-6-methoxy-2-(trifluoromethyl)-1H-imidazo[4,5-b]pyrazin-5-amine]: 5 to 20 µM; `COc1nc2[nH]c(C(F)(F)F)nc2nc1Nc1ccc(OC(F)(F)F)c(Cl)c1` [Compound 2-43, N-(3-chloro-4-(trifluoromethoxy)phenyl)-6-methoxy-2-(trifluoromethyl)-1H-imidazo[4,5-b]pyrazin-5-amine]: over 20 µM. For the compound `COc1nc2[nH]c(C(F)(F)F)nc2nc1Nc1ccc(OC(F)(F)F)c(Br)c1` [Compound 2-44, N-(3-bromo-4-(trifluoromethoxy)phenyl)-6-methoxy-2-(trifluoromethyl)-1H-imidazo[4,5-b]pyrazin-5-amine], the concentration giving a half-maximal response (EC50) was over 20 µM. Take `CC(C)Oc1nc2nc(C(F)(F)F)[nH]c2nc1Nc1ccc(C(F)(F)F)cc1` [Compound 2-45, 5-isopropoxy-2-(trifluoromethyl)-N-(4-(trifluoromethyl)phenyl)-1H-imidazo[4,5-b]pyrazin-6-amine]: the concentration for a half-maximal effect (EC50) was over 20 µM.

On to `Fc1ccccc1Oc1nc2nc(C(F)(F)F)[nH]c2nc1Nc1ccc(C(F)(F)F)cc1` [Compound 2-46, 5-(2-fluorophenoxy)-2-(trifluoromethyl)-N-(4-(trifluoromethyl)phenyl)-1H-imidazo[4,5-b]pyrazin-6-amine], for which the EC50 lay within 5 to 20 µM. For `FC(F)(F)c1ccc(Nc2nc3[nH]c(C(F)(F)F)nc3nc2Oc2ccc(C(F)(F)F)cc2)cc1` [Compound 2-47, 2-(trifluoromethyl)-5-(4-(trifluoromethyl)phenoxy)-N-(4-(trifluoromethyl)phenyl)-1H-imidazo[4,5-b]pyrazin-6-amine], the EC50 was at most 5 µM. `COc1nc2nc(C(F)(F)F)[nH]c2nc1N(C)c1ccc(C(F)(F)F)cc1` [Compound 2-49, 5-methoxy-N-methyl-2-(trifluoromethyl)-N-(4-(trifluoromethyl)phenyl)-1H-imidazo[4,5-b]pyrazin-6-amine]: the EC50 is at most 5 µM. For the compound `Oc1nc2[nH]c(C(F)(F)F)nc2nc1Nc1cccc(C(F)(F)F)c1F` [Compound 2-54, 5-((2-fluoro-3-(trifluoromethyl)phenyl)amino)-2-(trifluoromethyl)-1H-imidazo[4,5-b]pyrazin-6-ol], the EC50 was over 20 µM.

Turning to `Oc1nc2[nH]c(C(F)(F)F)nc2nc1Nc1ccc(C(F)(F)F)cc1` [Compound 2-55, 5-((4-(trifluoromethyl)phenyl)amino)-2-(trifluoromethyl)-1H-imidazo[4,5-b]pyrazin-6-ol], the EC50 was over 20 µM. The same measure, in the same setting: the figure for `COc1nc2[nH]c(-c3ccccc3)nc2nc1Nc1ccc(OC(F)(F)F)cc1` [Compound 2-60, 6-methoxy-2-phenyl-N-(4-(trifluoromethoxy)phenyl)-1H-imidazo[4,5-b]pyrazin-5-amine] is over 20 µM; for `COc1nc2nc(C(F)(F)F)[nH]c2cc1Nc1ccccc1F` [Compound 2-61, N-(2-fluorophenyl)-5-methoxy-2-(trifluoromethyl)-1H-imidazo[4,5-b]pyridin-6-amine] it is over 20 µM; for `COc1nc2nc(C(F)(F)F)[nH]c2cc1Nc1ccc(OC(F)(F)F)cc1` [Compound 2-62, 5-methoxy-N-(4-(trifluoromethoxy)phenyl)-2-(trifluoromethyl)-1H-imidazo[4,5-b]pyridin-6-amine] it is 5 to 20 µM. `COc1nc2nc(C(F)(F)F)[nH]c2cc1Nc1cccc(OC(F)(F)F)c1` [Compound 2-63, 5-methoxy-N-(3-(trifluoromethoxy)phenyl)-2-(trifluoromethyl)-1H-imidazo[4,5-b]pyridin-6-amine]: the EC50 was over 20 µM.

On to `COc1nc2nc(C(F)(F)F)[nH]c2cc1Nc1ccc(C(F)(F)F)cc1` [Compound 2-64, 5-methoxy-2-(trifluoromethyl)-N-(4-(trifluoromethyl)phenyl)-1H-imidazo[4,5-b]pyridin-6-amine], for which the EC50 fell in the range of 5 to 20 µM. In the case of `COc1nc2nc(C(F)(F)F)[nH]c2cc1Nc1cccc(C(F)(F)F)c1` [Compound 2-65, 5-methoxy-2-(trifluoromethyl)-N-(3-(trifluoromethyl)phenyl)-1H-imidazo[4,5-b]pyridin-6-amine], the EC50 was over 20 µM. `COc1nc2nc(C(F)(F)F)[nH]c2cc1Nc1ccc(OC(F)(F)F)cc1F` [Compound 2-66, N-(2-fluoro-4-(trifluoromethoxy)phenyl)-5-methoxy-2-(trifluoromethyl)-1H-imidazo[4,5-b]pyridin-6-amine]: the EC50 was at most 5 µM. In the case of `COc1nc2[nH]c(C(F)(F)F)nc2cc1Nc1cccc(F)c1` [Compound 2-67, N-(3-fluorophenyl)-5-methoxy-2-(trifluoromethyl)-3H-imidazo[4,5-b]pyridin-6-amine], the EC50 fell in the range of 5 to 20 µM. On the same count and under the same terms, next, `COc1nc2[nH]c(C(F)(F)F)nc2cc1Nc1cccc(F)c1F` [Compound 2-68, N-(2,3-Difluorophenyl)-5-methoxy-2-(trifluoromethyl)-3H-imidazo[4,5-b]pyridin-6-amine]: 5 to 20 µM. Turning to `COc1ccc(Nc2cc3nc(C(F)(F)F)[nH]c3nc2OC)cc1` [Compound 2-69, 5-methoxy-N-(4-methoxyphenyl)-2-(trifluoromethyl)-3H-imidazo[4,5-b]pyridin-6-amine], the EC50 is at most 5 µM. For `COc1nc2[nH]c(C(F)(F)F)nc2cc1Nc1cccc(C(C)(C)C)c1` [Compound 2-70, N-(3-(tert-butyl)phenyl)-5-methoxy-2-(trifluoromethyl)-3H-imidazo[4,5-b]pyridin-6-amine], the EC50 was over 20 µM. With `COc1nc2[nH]c(C(F)(F)F)nc2cc1Nc1cc(C(F)(F)F)cc(C(F)(F)F)c1` [Compound 2-72, N-(3,5-bis(trifluoromethyl)phenyl)-5-methoxy-2-(trifluoromethyl)-3H-imidazo[4,5-b]pyridin-6-amine], the EC50 fell in the range of 5 to 20 µM.

For `COc1nc2[nH]c(C(F)(F)F)nc2cc1Nc1ccc(C)cc1` [Compound 2-73, 5-methoxy-N-(p-tolyl)-2-(trifluoromethyl)-3H-imidazo[4,5-b]pyridin-6-amine], the half-maximal effective concentration (EC50) was over 20 µM.

`COc1nc2[nH]c(C(F)(F)F)nc2cc1Nc1ccc(OC(F)(F)F)cc1C` [Compound 2-74, 5-methoxy-N-(2-methyl-4-(trifluoromethoxy)phenyl)-2-(trifluoromethyl)-3H-imidazo[4,5-b]pyridin-6-amine]: the EC50 is at most 5 µM. Consider `COc1nc2nc(C(F)(F)F)[nH]c2cc1Nc1ccc(-c2ccc(C(F)(F)F)nc2)cc1` [Compound 2-75, 5-methoxy-2-(trifluoromethyl)-N-(4-(6-(trifluoromethyl)pyridin-3-yl)phenyl)-1H-imidazo[4,5-b]pyridin-6-amine], for which the EC50 is 5 to 20 µM. Turning to `Oc1nc2nc(-c3cccc(F)c3)oc2nc1Nc1ccccc1F` [Compound 4-3, 2-(3-fluorophenyl)-6-((2-fluorophenyl)amino)oxazolo[4,5-b]pyrazin-5-ol], the EC50 fell in the range of 5 to 20 µM. Regarding `Oc1nc2nc(-c3cccc(F)c3)oc2nc1Nc1cc(C(F)(F)F)cc(C(F)(F)F)c1` [Compound 4-5, 6-((3,5-bis(trifluoromethyl)phenyl)amino)-2-(3-fluorophenyl)oxazolo[4,5-b]pyrazin-5-ol], the EC50 lay within 5 to 20 µM.

The next test relates to Male C57BL/6J mice on western diet. Put plainly: Diet induced obesity mouse study. The class given is in vivo. As to conditions: WD containing 2-21, ~40 mg/kg/day, after 28 days of WD. The text has this:
FIG. 1. Diet induced obesity reversal data, for mice given a regular chow diet, a Western diet, or a Western diet plus compound 2-21. FIG. 1A, Body mass versus time; FIG. 1B, fat mass (measured by EchoMRI) versus time; FIG. 1C, food intake (last 14 days) versus time.
Male C57BL/6J mice aged 3 months were assigned to either normal chow diet (Chow, n=5) or western diet (WD, n=10) for 28 days. After 28 days half of the WD group were switched to WD containing compound 2-21 at a concentration resulting in consumption of ˜40 mg/kg/day 1-112 (2-21 40 mpk). Body mass (A), fat mass (measured by EchoMRI (B)), and food intake (C. for the final 14 days) were recorded as indicated.
As to `COc1nc2[nH]c(C(F)(F)F)nc2nc1Nc1ccc(OC(F)(F)F)cc1F` [Compound 2-21, 6-methoxy-N-(2-fluoro-4-(trifluoromethoxy)phenyl)-2-(trifluoromethyl)-1H-imidazo[4,5-b]pyrazin-5-amine], the Body mass entry is listed as “lost body weight”; the “Fat mass (measured by EchoMRI)” value was “lost body weight and fat mass”.

The same test, now with this note: WD containing 2-21, ~40 mg/kg/day; final 14 days.
Turning to `COc1nc2[nH]c(C(F)(F)F)nc2nc1Nc1ccc(OC(F)(F)F)cc1F` [Compound 2-21, 6-methoxy-N-(2-fluoro-4-(trifluoromethoxy)phenyl)-2-(trifluoromethyl)-1H-imidazo[4,5-b]pyrazin-5-amine], the Food intake result was “without a significant change in food intake”.
